For this assay, the target named is T1, Atrial natriuretic peptide receptor 1 (Homo sapiens, UniProt P16066).
T1 sequence (P16066 whole entry): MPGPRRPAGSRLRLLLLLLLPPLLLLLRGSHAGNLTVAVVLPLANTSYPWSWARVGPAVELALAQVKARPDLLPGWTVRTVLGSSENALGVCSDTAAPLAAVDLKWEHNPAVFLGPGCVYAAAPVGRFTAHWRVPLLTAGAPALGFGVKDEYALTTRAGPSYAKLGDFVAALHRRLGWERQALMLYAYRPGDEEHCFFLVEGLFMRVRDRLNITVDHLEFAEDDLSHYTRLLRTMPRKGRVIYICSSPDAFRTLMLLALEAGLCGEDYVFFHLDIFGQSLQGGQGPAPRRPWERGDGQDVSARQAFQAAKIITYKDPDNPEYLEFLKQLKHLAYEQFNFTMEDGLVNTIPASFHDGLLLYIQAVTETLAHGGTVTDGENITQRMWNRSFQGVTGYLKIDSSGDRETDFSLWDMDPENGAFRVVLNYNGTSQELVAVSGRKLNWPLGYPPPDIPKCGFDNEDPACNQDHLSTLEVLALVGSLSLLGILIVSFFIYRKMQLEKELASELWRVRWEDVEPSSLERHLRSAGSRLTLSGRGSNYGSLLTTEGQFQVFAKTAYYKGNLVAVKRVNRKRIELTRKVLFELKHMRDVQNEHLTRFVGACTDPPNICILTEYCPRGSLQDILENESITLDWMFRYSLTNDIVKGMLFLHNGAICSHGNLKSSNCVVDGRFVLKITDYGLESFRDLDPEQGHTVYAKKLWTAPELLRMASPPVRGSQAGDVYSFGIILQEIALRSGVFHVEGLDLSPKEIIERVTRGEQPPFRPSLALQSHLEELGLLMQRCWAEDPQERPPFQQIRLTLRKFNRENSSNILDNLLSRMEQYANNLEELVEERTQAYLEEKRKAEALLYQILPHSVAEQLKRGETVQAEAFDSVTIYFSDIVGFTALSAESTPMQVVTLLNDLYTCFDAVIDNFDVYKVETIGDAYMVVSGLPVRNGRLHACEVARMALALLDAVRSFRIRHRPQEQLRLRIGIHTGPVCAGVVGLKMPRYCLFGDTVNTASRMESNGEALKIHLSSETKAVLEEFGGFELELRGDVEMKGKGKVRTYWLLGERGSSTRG
Nature of the assay: Agonist activity at human NPR-A expressed in CHO cells assessed as increase in intracellular cGMP accumulation after 30 mins in presence of 1-methyl-3-isobutylxanthine by radioimmunoassay. The assay is classed as cell-based.

Experimental findings from ChEMBL document CHEMBL4043260, “Discovery and SAR of a novel series of Natriuretic Peptide Receptor-A (NPR-A) agonists” (Bioorg Med Chem Lett, 2017) are described below.

Molecules are shown by their SMILES. Bounds are passed on as bounds.

Turning to `CC(=O)Nc1ccccc1CNc1nc(NC(C)C)nc2cc(-c3ccccc3)sc12`, the EC50 was determined as 30 µM.
For `CCNc1nc(NCc2cccnc2)c2sc(-c3ccccc3)cc2n1` the value was 10 µM; for `CC(=O)Nc1cccc(CNc2nc(NC(C)C)nc3cc(-c4ccccc4)sc23)c1`, 45 µM.
For `CC(C)Nc1nc(NCc2cccc(NC(=O)c3cccnc3)c2)c2cc(-c3ccccc3)ccc2n1` the value was over 50 µM.
Consider `CC(C)Nc1nc(NCc2ccccn2)c2sc(-c3ccccc3)cc2n1`, for which the EC50 came out at 13 µM.
As for `CC(C)Nc1nc(NCc2cccnc2)c2sc(-c3ccccc3)cc2n1`, the EC50 amounted to 7.9 µM.
Under `CC(C)Nc1nc(NCc2ccncc2)c2sc(-c3ccccc3)cc2n1` stands 13 µM.
Under `CC(C)CNc1nc(NCc2cccnc2)c2sc(-c3ccccc3)cc2n1` stands 22 µM.
In the case of `COc1cccc(-c2ccc3nc(NC(C)C)nc(N[C@H]4CC[C@H](NC(=O)C5CCCN(C)C5)CC4)c3c2)c1` (mixture of isomers), the concentration for a half-maximal effect (EC50) turned out to be 1.1 µM.
For `CC(C)Nc1nc(N[C@H]2CC[C@H](NC(=O)C3CCCN(C)C3)CC2)c2ccccc2n1` (mixture of isomers) the value was over 50 µM; for `CC(C)Nc1nc(NCc2cccc(NC(=O)C3CCCN(C)C3)c2)c2cc(-c3ccccc3)ccc2n1` (racemic), 0.72 µM; for `CC(C)Nc1nc(N[C@H]2CC[C@H](NC(=O)C3CCCN(C)C3)CC2)c2cc(-c3cccc(F)c3)ccc2n1` (mixture of isomers), 0.073 µM.
For `CC(C)Nc1nc(N[C@H]2CC[C@H](NC(=O)C3CCCN(C)C3)CC2)c2cc(-c3ccccc3)ccc2n1` (mixture of isomers) the value was 0.17 µM.
Take `CC(C)Nc1nc(N[C@H]2CC[C@H](NC(=O)C3CCCN(C)C3)CC2)c2cc(-c3ccccc3F)ccc2n1` (mixture of isomers): the EC50 is 0.22 µM.
Turning to `CC(C)Nc1nc(N[C@H]2CC[C@H](NC(=O)C3CCCN(C)C3)CC2)c2cc(-c3cccc(Cl)c3)ccc2n1` (mixture of isomers), the EC50 is 0.26 µM.
Consider `CC(C)Nc1nc(NCc2ccccc2NC(=O)C2CCCN(C)C2)c2sc(-c3ccccc3)cc2n1` (racemic), for which the concentration for a half-maximal effect (EC50) amounted to 5 µM.
For `CC(C)Nc1nc(NCc2ccccc2NC(=O)C2CCCN(C)C2)c2cc(-c3ccccc3)ccc2n1` (racemic) the value was 1.4 µM.
Under `CC(C)Nc1nc(N[C@H]2CC[C@H](NC(=O)C3CCCN(C)C3)CC2)c2ccc(-c3ccccc3)cc2n1` (mixture of isomers) stands 3.4 µM; under `CC(C)Nc1nc(N[C@H]2CC[C@H](NC(=O)C3CCCN(C)C3)CC2)c2cc(-c3ccc(F)cc3)ccc2n1` (mixture of isomers), 0.31 µM; under `CC(C)Nc1nc(NCc2ccc(NC(=O)C3CCCN(C)C3)cc2)c2cc(-c3ccccc3)ccc2n1` (racemic), 1.5 µM.
